Experimental data: patent US10017585B2, “Methods and compositions for promoting hair growth” (Momenta Pharmaceuticals, Inc., priority 2010, dated 2018)

Tested on: female BALB/c mice
Assay: Hair regrowth score in shaved mice, MONC402 in combination with chemotherapy, 27 days
Type: in vivo
Experimental: The backs of eight week old female BALB/c mice were shaved. Osmotic pumps containing either saline or MONC402 were implanted into 64 mice (32 saline, 32 MONC402). Mice were further divided into groups receiving either saline or Docetaxel (10 mg/kg) once weekly ip starting 13 days after pump implant. Additionally, there was one group of naïve mice (n=4) as well as one group of mice receiving chemotherapy alone (Docetaxel, 10 mg/kg, once weekly ip starting 6 days after pump implant, n=16) which were not subject to shaving or pump implant. Staples used to close the implantation wound were removed 7 days later. Twenty seven days after pump implant, mice were scored for hair growth over the shaved area.

[1] = Docetaxel (10 mg/kg weekly ip) + Saline pump, 27 days

Structure (SMILES): CC(=O)O[C@@]12CO[C@@H]1C[C@H](O)[C@@]1(C)C(=O)[C@H](O)C3=C(C)[C@@H](OC(=O)[C@H](O)[C@@H](NC(=O)OC(C)(C)C)c4ccccc4)C[C@@](O)([C@@H](OC(=O)c4ccccc4)[C@H]21)C3(C)C [Docetaxel]
- Number of animals scored 4: full growth (indistinguishable from unshaved) (Docetaxel 10 mg/kg once weekly ip alone, No shaving or pump implant): 16/16
- Number of animals scored 1.5 [1]: 1/16
- Number of animals scored 2: light growth [1]: 7/16
- Number of animals scored 2.5 [1]: 2/16
- Number of animals scored 3: patchy/heavy growth [1]: 6/16
